Experiments:
[1] = biological target: T1, EFHA1 (which binds to Tyk2(C) itself) (Homo sapiens, UniProt Q8IYU8); assay: Tyk2(C) kinase substrate sensor luciferase reporter assay, EFHA1 control interaction; assay type: cell-based; conditions: HEK293-T cells, pMet7-HA-Tyk2(C)-p53(N)+pMG1-EFHA1; 0-3333 nM; FIG. 4
T1 construct: expressed in transfected cells; host or cells: HEK293-T
T1 sequence (Q8IYU8 1-434): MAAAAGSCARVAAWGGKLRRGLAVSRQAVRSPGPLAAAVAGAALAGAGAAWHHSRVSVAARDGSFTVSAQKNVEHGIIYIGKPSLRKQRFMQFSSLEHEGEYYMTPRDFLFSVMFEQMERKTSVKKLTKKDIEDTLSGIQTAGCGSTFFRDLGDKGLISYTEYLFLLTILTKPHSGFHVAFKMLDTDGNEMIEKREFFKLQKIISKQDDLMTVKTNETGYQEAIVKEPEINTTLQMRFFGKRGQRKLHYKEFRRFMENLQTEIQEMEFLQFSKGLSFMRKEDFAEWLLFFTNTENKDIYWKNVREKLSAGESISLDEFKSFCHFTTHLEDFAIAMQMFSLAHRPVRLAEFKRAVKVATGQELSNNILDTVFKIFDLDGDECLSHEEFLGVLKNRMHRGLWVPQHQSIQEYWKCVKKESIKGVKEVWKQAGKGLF

[2] = system: Tyk2(C); assay: Imidazole treatment of the constitutive Tyk2(C)-RTp66 fusion assay, luciferase reporter; assay type: cell-based, human; conditions: HEK293-T cells, pMet7-HA-Tyk2(C)-RTp66; 0.5-50 mM imidazole
Experimental: (§1) Transfections were carried out using a standard calcium phosphate method. HEK293-T cells were seeded in black tissue-culture treated 96-well plates at 10,000 cells/well in 100 μl culture medium (DMEM supplemented with 10% FCS). Twenty-four hours later, plasmid DNA mixes were prepared that contained plasmids encoding fusion proteins with the first and second interacting proteins and reporter plasmids. The DNA was supplemented with 10 μl 2.5M CaCl2) and double distilled water to a final volume of 100 μl. This mixture was added dropwise to 100 μl 2×HeBS buffer (280 mM NaCl, 1.5 mM Na2HPO4, 50 mM Hepes; pH 7.05) while vigorously vortexing. After incubation at room temperature for 15 minutes to allow DNA precipitates to form, the solution was added to the cells at […] Cells were incubated at 37° C., 8% CO2. Forty-eight hours after transfection, luciferase activity was measured using the Luciferase Assay System kit (Promega) on a TopCount luminometer (Perkin-Elmer). Each transfection was done in triplicate and the average of the luciferase activity readings was used in the calculations.
(§2) A Nutlin-3 (Sigma) stock solution of 20 mM in DMSO was diluted in culture medium and added to the cells 24 hours after transfection. Imidazole (Sigma) diluted in culture medium was added to the cells 24 hours after transfection. […]

[3] = system: Tyk2(R1027A); assay: Imidazole-inducible version of the assay, Tyk2(R1027A)-RTp66 fusion, luciferase reporter; assay type: cell-based, human; conditions: HEK293-T cells, 0.5-50 mM imidazole
Experimental: as §1, §2

Row | SMILES | signal corresponding to the interaction with EFHA1 [1] | imidazole regulation of the signal in cells transfected with the Tyk2(C) fusion [2] | background signal, Tyk2 fusion construct with unfused gp130 fragment (pMG1) ([3]; Tyk2 fusion construct + pMG1) | maximal imidazole-dependent induction of the signal (interaction between HIV RTp66 and RTp51) compared to untreated cells ([3]; pMet7-HA-Tyk2(R1027A)-RTp66+pMG2-RTp51, added 24 hours after transfection)
1 | COc1ccc(C2=N[C@@H](c3ccc(Cl)cc3)[C@@H](c3ccc(Cl)cc3)N2C(=O)N2CCNC(=O)C2)c(OC(C)C)c1 [Nutlin-3] | unaffected |  |  | 
2 | c1c[nH]cn1 [imidazole] |  | did not exhibit any imidazole regulation | unaffected | 36 fold
